Assay: Accelerated storage test of beverages, BioPQQ recovery by HPLC
Format: physicochemical
Details: beverages stored at 60° C. (Table 5), in words
Experimental: Analysis conditions of pyrroloquinoline quinone disodium salt
HPLC Conditions: • Shimadzu LC-2010 • Column: YMC-Pack ODS-A • Detection wavelength: 259 nm • Mobile phase: 30 mM acetic acid-70 mM ammonium acetate • Column temperature: 40° C.
(Accelerated Storage Test)
The sample of Example 1 was stored under the conditions of 60° C. for 2 weeks, which are equivalent to those of room temperature for 2 years. When the stored sample was subjected to HPLC, 97% of BioPQQ was recovered.

## OC[C@@H](O)[C@@H](O)CO [Erythritol]
  stabilizing effect on BioPQQ: high stabilizing effect
